# Measurements reported in patent US20060110781A1, “Cholesterol detection reagent” (RIKEN, priority 2002, published 2006).
# Tested on: NPC fibroblasts
# Assay: Fate of cell surface fPEG-Chol, incorporation into meshwork structure
# Conditions: for incorporation of fPEG-Chol into meshwork: inhibitor 5 μg/ml before 1 μM fPEG-Chol
Structure (SMILES),incorporation of fPEG-Chol into meshwork,"internalization of rhodamine dextran (5 μg/ml, 30 minutes, 1 mg/ml rhodamine dextran)"
C[C@H]1CCC/C=C/[C@@H]2C[C@H](O)C[C@H]2[C@H](O)/C=C/C(=O)O1 [Brefeldin A],did not significantly affect,–
C=C1[C@@H](C)[C@H]2[C@H](Cc3ccccc3)NC(=O)[C@]23OC(=O)/C=C/[C@H](O)CCC[C@@H](C)C/C=C/[C@H]3[C@@H]1O [cytochalasin B],meshwork structure was disappeared,did not affect
COC(=O)Nc1nc2ccc(C(=O)c3cccs3)cc2[nH]1 [nocodazole],did not significantly affect,–
